Source: PubChem BioAssay AID330 (DTP/NCI, 2004)
“And” between values parts separate entries of the source, which are not always exact repeats. Identical values can stand only once. Toxic doses and inconclusive results are not listed.

Tested on: P388 leukemia ip, CD2F1 mice, survival T/C
Assay: NCI In Vivo Anticancer Drug Screen. Data for tumor model P388 Leukemia (intraperitoneal) in CD2F1 (CDF1) mice
Conditions: endpoint: median survival time, higher = longer survival
In short: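 Mice carrying the transplanted tumor received test compound or vehicle. Survival was recorded in each group, and the value is the treated-group measurement divided by that of the vehicle-treated control group.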

[1] = dose: 50.0 mg/kg/injection, schedule: Q01DX009 (ip), vehicle: saline
[2] = dose: 100.0 mg/kg/injection, schedule: Q01DX009 (ip), vehicle: saline
[3] = dose: 200.0 mg/kg/injection, schedule: Q01DX009 (ip), vehicle: saline
[4] = dose: 60.0 mg/kg/injection, schedule: Q01DX005 (ip), vehicle: saline with Tween-80
[5] = dose: 120.0 mg/kg/injection, schedule: Q01DX005 (ip), vehicle: saline with Tween-80
[6] = dose: 50.0 mg/kg/injection, schedule: Q01DX005 (ip), vehicle: saline with Tween-80
[7] = dose: 100.0 mg/kg/injection, schedule: Q01DX005 (ip), vehicle: saline with Tween-80
[8] = dose: 200.0 mg/kg/injection, schedule: Q01DX005 (ip), vehicle: saline with Tween-80
[9] = dose: 240.0 mg/kg/injection, schedule: Q01DX005 (ip), vehicle: saline with Tween-80
[10] = dose: 6.25 mg/kg/injection, schedule: Q01DX009 (ip), vehicle: Klucel (hydroxypropylcellulose) (HPC)
[11] = dose: 12.5 mg/kg/injection, schedule: Q01DX009 (ip), vehicle: Klucel (hydroxypropylcellulose) (HPC)
[12] = dose: 25.0 mg/kg/injection, schedule: Q01DX009 (ip), vehicle: Klucel (hydroxypropylcellulose) (HPC)
[13] = dose: 100.0 mg/kg/injection, schedule: Q01DX009 (ip), vehicle: Klucel (hydroxypropylcellulose) (HPC)
[14] = dose: 60.0 mg/kg/injection, schedule: Q01DX005 (ip), vehicle: saline
[15] = dose: 120.0 mg/kg/injection, schedule: Q01DX005 (ip), vehicle: saline
[16] = dose: 50.0 mg/kg/injection, schedule: Q01DX009 (ip), vehicle: saline with Tween-80
[17] = dose: 100.0 mg/kg/injection, schedule: Q01DX009 (ip), vehicle: saline with Tween-80

SMILES: N#Cc1ccc(NN=NCCSCCO)cc1
- T/C (dose: 12.5 mg/kg/injection, schedule: Q01DX009 (ip), vehicle: distilled water + alcohol): 96 % of control
- T/C (dose: 25.0 mg/kg/injection, schedule: Q01DX009 (ip), vehicle: distilled water + alcohol): 104 % of control
- T/C (dose: 50.0 mg/kg/injection, schedule: Q01DX009 (ip), vehicle: distilled water + alcohol): 104 % of control
- T/C (dose: 100.0 mg/kg/injection, schedule: Q01DX009 (ip), vehicle: distilled water + alcohol): 109 % of control

SMILES: COP(=O)(O)Oc1ccccc1 (tested in a mixture with another compound)
- T/C [1]: 101 % of control
- T/C [2]: 100 % of control
- T/C [3]: 99 % of control

SMILES: CCN(CC)CCn1cnc(C#N)c1N
- T/C [1]: 101 % of control
- T/C [2]: 100 % of control
- T/C [3]: 108 % of control

SMILES: CCOC(=O)C(=O)Nc1cccc(NC(=O)C(=O)OCC)n1
- T/C [4]: 100 % of control
- T/C [5]: 94 % of control

SMILES: COc1ccc(CSC(=S)Nc2ccc(Cl)cc2Cl)cc1
- T/C [1]: 106 % of control
- T/C [2]: 105 % of control
- T/C [3]: 99 % of control

SMILES: Cc1cc(Cl)nc2nc(Cl)ccc12
- T/C [6]: 101 % of control
- T/C [7]: 93 % of control

SMILES: COc1ccc2c(NCCCCCCCCNc3c4ccccc4nc4cc(OC)ccc34)c3ccccc3nc2c1
- T/C (dose: 0.62 mg/kg/injection, schedule: Q01DX009 (ip), vehicle: other): 176 % of control
- T/C (dose: 3.75 mg/kg/injection, schedule: Q01DX009 (ip), vehicle: other): 157 % of control
- T/C (dose: 7.5 mg/kg/injection, schedule: Q01DX009 (ip), vehicle: other): 100 % of control

SMILES: CC(C)CC(NC(=O)C(Cc1ccccc1)NC(=O)CNC(=O)C(C)NC(=O)C(N)Cc1ccc(O)cc1)C(=O)O (centres undefined)
- T/C [6]: 93 % of control
- T/C [7]: 109 % of control
- T/C [8]: 91 % of control

SMILES: CC(C)(C)c1ccc(C(=O)NCSCC(NC(=O)CCC(N)C(=O)O)C(=O)NCC(=O)O)cc1 (centres undefined)
- T/C [4]: 98 % of control
- T/C [5]: 104 % of control
- T/C [9]: 86 % of control

SMILES: NCCSSc1ccccc1C(=O)O
- T/C (dose: 50.0 mg/kg/injection, schedule: Q01DX005 (ip), vehicle: Klucel (hydroxypropylcellulose) (HPC)): 102 % of control
- T/C (dose: 100.0 mg/kg/injection, schedule: Q01DX005 (ip), vehicle: Klucel (hydroxypropylcellulose) (HPC)): 105 % of control
- T/C (dose: 200.0 mg/kg/injection, schedule: Q01DX005 (ip), vehicle: Klucel (hydroxypropylcellulose) (HPC)): 112 % of control

SMILES: O=C1CCC(C(=O)N(C(=O)NC2CCCCC2)C2CCCCC2)Cc2ccccc21 (centres undefined)
- T/C (dose: 60.0 mg/kg/injection, schedule: Q01DX005 (ip), vehicle: Klucel (hydroxypropylcellulose) (HPC)): 98 % of control
- T/C (dose: 120.0 mg/kg/injection, schedule: Q01DX005 (ip), vehicle: Klucel (hydroxypropylcellulose) (HPC)): 92 % of control
- T/C (dose: 240.0 mg/kg/injection, schedule: Q01DX005 (ip), vehicle: Klucel (hydroxypropylcellulose) (HPC)): 90 % of control

SMILES: COC(=O)C1=CO[C@@H](OC2OC(CO)C(O)C(O)C2O)[C@@H]2[C@@H](CO)[C@@H](O)[C@@H](OC(=O)/C=C/c3ccc(O)c(O)c3)[C@H]12 (some centres undefined)
- T/C (dose: 7.25 mg/kg/injection, schedule: Q01DX005 (ip), vehicle: saline + alcohol): 106 % of control
- T/C (dose: 14.5 mg/kg/injection, schedule: Q01DX005 (ip), vehicle: saline + alcohol): 107 % of control
- T/C (dose: 29.0 mg/kg/injection, schedule: Q01DX005 (ip), vehicle: saline + alcohol): 109 % of control
- T/C (dose: 58.0 mg/kg/injection, schedule: Q01DX005 (ip), vehicle: saline + alcohol): 113 % of control

SMILES: CSc1nc2ccc(NC(=O)CCC(=O)O)cc2s1
- T/C [10]: 104 % of control
- T/C [11]: 101 % of control
- T/C [12]: 107 % of control

SMILES: COC(=O)CCC(Br)(Br)Br
- T/C (dose: 50.0 mg/kg/injection, schedule: Q01DX009 (ip), vehicle: Klucel (hydroxypropylcellulose) (HPC)): 94 % of control
- T/C [13]: 99 % of control

SMILES: COC(=O)/C=N/O
- T/C [14]: 99 % of control
- T/C [15]: 102 % of control
- T/C (dose: 240.0 mg/kg/injection, schedule: Q01DX005 (ip), vehicle: saline): 102 % of control

SMILES: NC(=O)NN=C(C(F)(F)F)C(F)(F)F
- T/C [16]: 110 % of control
- T/C [17]: 101 % of control

SMILES: CCOC(=O)[C@H]1CC[C@@H](C(=O)OCC)N1Sc1ccc([N+](=O)[O-])cc1[N+](=O)[O-]
- T/C [6]: 102 % of control
- T/C [7]: 102 % of control
- T/C [8]: 102 % of control

SMILES: Cc1ncc(CO)c(CO)c1OCC(O)CN1CCN(C(=O)c2ccccc2)CC1 (centres undefined)
- T/C [14]: 101 % of control
- T/C [15]: 104 % of control

SMILES: c1cc(-c2cc3ccc(C4=NCCN4)cc3s2)ccc1C1=NCCN1
- T/C (dose: 25.0 mg/kg/injection, schedule: Q04DX003 (ip), vehicle: saline): 115 % of control
- T/C (dose: 50.0 mg/kg/injection, schedule: Q04DX003 (ip), vehicle: saline): 115 % of control

SMILES: COc1ccccc1/C=C/C1=C(C)C(=O)CC(c2ccccc2OC)C1C (centres undefined)
- T/C [13]: 100 % of control
- T/C (dose: 200.0 mg/kg/injection, schedule: Q01DX009 (ip), vehicle: Klucel (hydroxypropylcellulose) (HPC)): 98 % of control
- T/C (dose: 400.0 mg/kg/injection, schedule: Q01DX009 (ip), vehicle: Klucel (hydroxypropylcellulose) (HPC)): 92 % of control

SMILES: O/N=C(/Cc1nc2cc(Cl)c(Cl)cc2nc1C/C(=N/O)c1cccnc1)c1cccnc1
- T/C [4]: 102 % of control
- T/C [5]: 107 % of control
- T/C [9]: 107 % of control

SMILES: Cn1c[n+](C2OC(CO)C(O)C2O)c2nc(N)[nH]c(=O)c21 (centres undefined)
- T/C (dose: 50.0 mg/kg/injection, schedule: Q01DX005 (ip), vehicle: saline): 119 % of control
- T/C (dose: 100.0 mg/kg/injection, schedule: Q01DX005 (ip), vehicle: saline): 105 % of control
- T/C (dose: 200.0 mg/kg/injection, schedule: Q01DX005 (ip), vehicle: saline): 115 % of control

SMILES: COc1cccc(CN2CCN(/N=C/c3c4c(O)c5c(O)c(C)c6c(c5c3O)C(=O)C(C)(O/C=C/C(OC)C(C)C(OC(C)=O)C(C)C(O)C(C)C(O)C(C)/C=C/C=C(C)C(=O)N4)O6)CC2)c1 (centres undefined)
- T/C (dose: 12.5 mg/kg/injection, schedule: Q01DX009 (ip), vehicle: saline with Tween-80): 120 % of control
- T/C (dose: 25.0 mg/kg/injection, schedule: Q01DX009 (ip), vehicle: saline with Tween-80): 118 % of control
- T/C [16]: 112 % of control and 117 % of control
- T/C [17]: 121 % of control

SMILES: CCC[As](CCC)SCC1OC(OC(C)=O)C(OC(C)=O)C(OC(C)=O)C1OC(C)=O (centres undefined)
- T/C [16]: 117 % of control
- T/C [17]: 110 % of control

SMILES: CCOC(=O)C[n+]1cc2ccccc2cc1C
- T/C [6]: 94 % of control
- T/C [7]: 108 % of control

SMILES: COc1cc2ccnc(C3(O)CCN(C)CC3)c2cc1OC
- T/C [10]: 94 % of control
- T/C [11]: 98 % of control
- T/C [12]: 93 % of control
- T/C (dose: 50.0 mg/kg/injection, schedule: Q01DX001 (ip), vehicle: Klucel (hydroxypropylcellulose) (HPC)): 102 % of control
- T/C (dose: 100.0 mg/kg/injection, schedule: Q01DX001 (ip), vehicle: Klucel (hydroxypropylcellulose) (HPC)): 105 % of control
- T/C (dose: 200.0 mg/kg/injection, schedule: Q01DX001 (ip), vehicle: Klucel (hydroxypropylcellulose) (HPC)): 97 % of control

SMILES: CNC(=O)O/N=C(\CN=[N+]=[N-])C(C)(C)C
- T/C (dose: 0.78 mg/kg/injection, schedule: Q01DX009 (ip), vehicle: saline with Tween-80): 93 % of control

SMILES: O=[N+]([O-])c1cnc(/C=[N+](\[O-])CCO)n1CCO
- T/C [1]: 99 % of control
- T/C [2]: 90 % of control
- T/C [3]: 106 % of control

SMILES: CC1(C)CC(=O)C=C(Nc2ccc(O)cc2)C1
- T/C (dose: 6.25 mg/kg/injection, schedule: Q01DX005 (ip), vehicle: saline with Tween-80): 100 % of control
- T/C (dose: 12.5 mg/kg/injection, schedule: Q01DX005 (ip), vehicle: saline with Tween-80): 100 % of control
- T/C (dose: 25.0 mg/kg/injection, schedule: Q01DX005 (ip), vehicle: saline with Tween-80): 96 % of control
- T/C [7]: 86 % of control

SMILES: C=CCOc1cc2c(cc1OCC=C)C(=O)c1cc3c(cc1C2=O)OCO3
- T/C (dose: 7.5 mg/kg/injection, schedule: Q01DX005 (ip), vehicle: saline with Tween-80): 95 % of control
- T/C (dose: 15.0 mg/kg/injection, schedule: Q01DX005 (ip), vehicle: saline with Tween-80): 93 % of control

SMILES: COc1c(CCl)c2c(c(OC)c1OC)COC2=O
- T/C [16]: 100 % of control
- T/C [17]: 90 % of control
- T/C (dose: 200.0 mg/kg/injection, schedule: Q01DX009 (ip), vehicle: saline with Tween-80): 116 % of control
